≈ marks a conversion by molar mass, not a printed value. Where two headings read alike, the source gives them in different places.
What was measured:
HL-60 = assay: Antiproliferative MTT assay, HL-60; assay type: cell-based, human; conditions: for IC50: Homo sapiens, read-out: IC50 HL-60; for SI HL-60: SI = IC50 BALB/3T3 / IC50 HL-60
Description: (§1) Four human cancer cell lines and one normal cell line were used to evaluate anticancer activity of SAL and its N-benzyl amides: human acute promyelocytic leukemia (HL-60) and its vincristine resistant subline (HL-60/vinc), human colon adenocarcinoma cell lines sensitive (LoVo) and resistant to doxorubicin (LoVo/dx) as well as also normal murine embryonic fibroblast cell line (BALB/3T3). The BALB/3T3 cell line was purchased from the American Type Culture Collection (ATCC Rockville, MD, USA), HL-60 cell line from European Type Culture Collection by courtesy of Professor Spik and Dr Mazurier (Laboratory of Biological Chemistry USTL, Lille, France) and HL-60/vinc, LoVo and LoVo/dx by courtesy of Prof. E. Borowski (Technical University of Gdańsk, Gdańsk, Poland). All the cell lines are maintained in the Institute of Immunology and Experimental Therapy (IIET), Wrocław, Poland.
(§2) Human leukemia cells were cultured in ISCOVE medium (IIET, Wroclaw, Polond) containing 10% fetal bovine serum and 2 mM L-glutamine (Sigma Aldrich) and 1 µg/100 mL […] for HL-60/vinc (Sigma Aldrich). Human colon adenocarcinoma cell lines were cultured in mixture of OptiMEM and RPMI 1640 (1:1) medium (IIET) supplemented with 5% fetal bovine serum (Thermo Fisher Scientific, Waltham, MA, USA), 2 mM L-glutamine, 1 mM sodium pyruvate (Sigma Aldrich) and 10 µg/100 mL doxorubicin for LoVo/dx (Sigma Aldrich). Murine embryonic fibroblast cells were cultured in Dulbecco medium (Gibco, Darmstadt, Germany) supplemented with 10% fetal bovine serum (Thermo Fisher Scientific) and 2 mM L-glutamine (Sigma Aldrich). All culture media contained antibiotics: 100 U/mL penicillin (Sigma Aldrich) and 100 µg/mL streptomycin (Polfa-Tarchomin, City, Poland). All cell lines were cultured during entire experiment in humid atmosphere at 37 °C and 5% CO2.
(§3) Twenty four hours before adding the tested compounds all cell lines were seeded in 96-well plates (Sarstedt, Nümbrecht, Germany) in appropriate media with 10^4 cells per well. All cell lines were exposed to each tested agent at four different concentrations from the range 100 to 0.1 µg/mL for 72 h. The cells were also exposed to the reference drugs: cisplatin (Accord, London, UK) and doxorubicin hydrochloride (Fluka, St. Louis, MO, USA). Additionally, all cell lines were exposed to DMSO (the solvent used for tested compounds, Sigma Aldrich) at the concentrations corresponding to those in the tested agent dilutions. For adherent cells sulphorodamine B assay was performed and MTT assay for leukemia cells.
(§4) Proliferation inhibition of leukemia cells by tested compounds was measured by means of MTT assay. Thus, 20 µL of 3-(4,5-dimethylthiazol-2-yl)-2,5-diphenyl tetrazolium bromide solution (Sigma Aldrich) were added to each well and plates were left in cell incubator for 4 h to allow the cells to metabolize yellow MTT to blue formazan. Then, the lysing mixture consisting of 225 mL dimethylformamide, 67.5 g sodium dodecyl sulfate (both from Sigma Aldrich) and 275 mL of distilled water was added in 80 µL volume per well. Plates were incubated for 24 h for the formazan crystals to be released from cells, dissolved and then absorbance of each well was read at Synergy H4 photometer (BioTek Instruments) at 570 nm wavelength.
(§5) Results are presented as mean IC50 (concentration of the tested compound that inhibits cell proliferation by 50%) ± standard deviation. IC50 values were calculated in Cheburator 1.0.2, Dmitry Nevozhay software for each experiment. Compounds at each concentration were tested in triplicates in single experiment and each experiment was repeated at least three times independently. The IR was defined as the ratio of IC50 for a given compound calculated for resistant cell line to that measured for its parental drug sensitive cell line (Table 4).

LoVo/dx = assay: Antiproliferative SRB assay, LoVo/dx; assay type: cell-based, human; conditions: for IC50: Homo sapiens, LoVo/DX, 72 h, read-out: IC50 LoVo/dx; for IR LoVo/DX: IR = IC50 LoVo/dx / IC50 LoVo; for SI LoVo/DX: SI = IC50 BALB/3T3 / IC50 LoVo/dx
Description: as §1, §2, §3
(§6) After 72 h of incubation with tested compounds the cells were fixed in situ by gently adding of 50 µL per well of cold 50% trichloroacetic acid TCA (Avantor Performance Materials, City, Poland) and were incubated at 4 °C for 1 h. Then the wells were washed four times with water and air-dried. Next, 50 µL of 0.2% solution of sulphorodamine B (Sigma Aldrich) in 1% acetic acid (Avantor Performance Materials) were added to each well and plates were incubated at room temperature for 0.5 h. After incubation time, unbound dye was removed by washing plates four times with 1% acetic acid, whereas the stain bound to cells was solubilized with 150 µL of 10 mM Tris base (Sigma Aldrich). Absorbance of each solution was read at Synergy H4 photometer (BioTek Instruments, Winooski, VT, USA) at 540 nm wavelength.
as §5

[1] = tested on: M. tuberculosis standard H37Rv strain; assay: Tuberculostatic activity, test-tube dilution; assay type: cell-based; conditions: Mycobacterium tuberculosis, read-out: MIC M. tuberculosis Standard H37Rv Strain
LoVo = assay: Antiproliferative SRB assay, LoVo; assay type: cell-based, human; conditions: for IC50: Homo sapiens, LoVo, 72 h, read-out: IC50 LoVo; for SI LoVo: SI = IC50 BALB/3T3 / IC50 LoVo
Description: as §1, §2, §3, §6, §5

HL-60/vinc = assay: Antiproliferative MTT assay, HL-60/vinc; assay type: cell-based, human; conditions: for IC50: Homo sapiens, HL60/vinc, 72 h, read-out: IC50 HL-60/vinc; for IR HL-60/vinc: IR = IC50 HL-60/vinc / IC50 HL-60; for SI HL-60/vinc: SI = IC50 BALB/3T3 / IC50 HL-60/vinc
Description: as §1, §2, §3, §4, §5

[2] = tested on: standard and "wild" strains of M. tuberculosis; assay: Tuberculostatic activity, all M. tuberculosis strains (overall); assay type: cell-based; conditions: Mycobacterium tuberculosis, H37RV, read-out: MIC (over M. tuberculosis strains)
[3] = tested on: M. tuberculosis isoniazid-sensitive strain (spec. 192); assay: Tuberculostatic activity, test-tube dilution; assay type: cell-based; conditions: Mycobacterium tuberculosis, read-out: MIC M. tuberculosis Isoniazid-Sensitive Strain
[4] = tested on: HL-60, HL-60/vinc, LoVo, LoVo/dx; assay: Antiproliferative assays, all four cancer cell lines (range given); assay type: cell-based; conditions: Homo sapiens; range over HL-60, HL-60/vinc, LoVo, LoVo/dx; read-out: IC50 (range over the cancer cell lines)
Description: as §1, §2, §3, §6
Proliferation inhibition of leukemia cells by tested compounds was measured by means of MTT assay. […]

[5] = HL-60, 72 h, MTT, mean ± SD, NA: not active in concentrations used (up to 100 µg/mL)

| SMILES | IC50 (HL-60; [5]) [µM] | SI HL-60 (HL-60) | IC50 (LoVo/dx) [µM] | IR LoVo/DX (LoVo/dx) | SI LoVo/DX (LoVo/dx) | MIC [1] [µg/mL] | IC50 (LoVo; SRB, mean ± SD) [µM] | SI LoVo (LoVo) | IC50 (HL-60/vinc) [µM] | IR HL-60/vinc (HL-60/vinc) | SI HL-60/vinc (HL-60/vinc) | MIC [2] [µg/mL] | MIC [3] [µg/mL] | IC50 [4] [µM] | IC50 (HL-60; HL-60, 72 h) [µM] | IC50 (LoVo) [µM] | MIC ([1]; Youmans' medium, 37 °C, tested 3.1-100 µg/mL) [µg/mL] | MIC ([3]; wild strain spec. 192, Youmans' medium, 37 °C, tested 3.1-100 µg/mL) [µg/mL] |
| --- | --- | --- | --- | --- | --- | --- | --- | --- | --- | --- | --- | --- | --- | --- | --- | --- | --- | --- |
| CC[C@H](C(=O)NCc1cccc(Br)c1)C1CC[C@H](C)C([C@@H](C)[C@H](O)[C@H](C)C(=O)[C@H](CC)C2O[C@]3(C=C[C@@H](O)C4(CC[C@@](C)(C5CC[C@](O)(CC)[C@H](C)O5)O4)O3)[C@H](C)C[C@@H]2C)O1 (some centres unmarked) [Br-m] | 3.38 ± 1.09 | 2.74 | 3.39 ± 0.15 | 0.65 | 2.73 | > 100 | 5.23 ± 0.22 | 1.77 | 7.08 ± 1.73 | 2.09 | 1.31 | > 100 | > 100 | – | – | – | – | – |
| CC[C@H](C(=O)NCc1ccc(Br)cc1)C1CC[C@H](C)C([C@@H](C)[C@H](O)[C@H](C)C(=O)[C@H](CC)C2O[C@]3(C=C[C@@H](O)C4(CC[C@@](C)(C5CC[C@](O)(CC)[C@H](C)O5)O4)O3)[C@H](C)C[C@@H]2C)O1 (some centres unmarked) [Br-p] | 20.7 ± 4.66 | 0.41 | 4.97 ± 2.76 | 0.30 | 1.69 | 50 (≈ 54.4 µM) | 16.3 ± 0.96 | 0.52 | 33.5 ± 10.9 | 1.62 | 0.25 | – | 50 (≈ 54.4 µM) | – | – | – | – | – |
| CC[C@H](C(=O)NCc1cccc(Cl)c1)C1CC[C@H](C)C([C@@H](C)[C@H](O)[C@H](C)C(=O)[C@H](CC)C2O[C@]3(C=C[C@@H](O)C4(CC[C@@](C)(C5CC[C@](O)(CC)[C@H](C)O5)O4)O3)[C@H](C)C[C@@H]2C)O1 (some centres unmarked) [Cl-m] | 3.83 ± 0.09 | 4.52 | 2.96 ± 0.99 | 0.25 | 5.86 | 100 (≈ 114 µM) | 11.6 ± 5.12 | 1.49 | 6.59 ± 1.22 | 1.72 | 2.63 | – | > 100 | – | – | – | – | – |
| CC[C@H](C(=O)NCc1ccccc1Cl)C1CC[C@H](C)C([C@@H](C)[C@H](O)[C@H](C)C(=O)[C@H](CC)C2O[C@]3(C=C[C@@H](O)C4(CC[C@@](C)(C5CC[C@](O)(CC)[C@H](C)O5)O4)O3)[C@H](C)C[C@@H]2C)O1 (some centres unmarked) [Cl-o] | 3.18 ± 0.69 | 1.89 | 2.91 ± 0.22 | 0.76 | 2.06 | 100 (≈ 114 µM) | 3.85 ± 0.05 | 1.56 | 3.99 ± 1.47 | 1.25 | 1.50 | – | 50 (≈ 57.2 µM) | 2.32 to 6.84 | – | – | – | – |
| CC[C@H](C(=O)NCc1ccc(Cl)cc1)C1CC[C@H](C)C([C@@H](C)[C@H](O)[C@H](C)C(=O)[C@H](CC)C2O[C@]3(C=C[C@@H](O)C4(CC[C@@](C)(C5CC[C@](O)(CC)[C@H](C)O5)O4)O3)[C@H](C)C[C@@H]2C)O1 (some centres unmarked) [Cl-p, p-chlorobenzyl amide of salinomycin] | 36.2 ± 3.03 | 0.21 | 16.6 ± 4.81 | 0.86 | 0.46 | 100 (≈ 114 µM) | 19.3 ± 4.03 | 0.40 | 46.8 ± 12.5 | 1.29 | 0.16 | – | 100 (≈ 114 µM) | – | – | – | – | – |
| CCC(C(=O)NCc1cccc(F)c1)C1CCC(C)C(C(C)C(O)C(C)C(=O)C(CC)C2OC3(C=CC(O)C4(CCC(C)(C5CCC(O)(CC)C(C)O5)O4)O3)C(C)CC2C)O1 (centres unmarked) [F-m] | – | 0.10 | 3.91 ± 2.1 | 0.29 | 1.65 | 100 (≈ 117 µM) | – | 0.48 | – | – | – | – | > 100 | – | 65 ± 35.3 | 13.5 ± 0.28 | – | – |
| NNC(=O)c1ccncc1 [Isoniazid, isoniazid, reference compound] | – | – | – | – | – | – | – | – | – | – | – | 3.1 to 6.25 (≈ 22.6 to 45.6 µM) | – | – | – | – | < 3.1 | < 3.1 |
| CC[C@H](C(=O)NCc1cccc([N+](=O)[O-])c1)C1CC[C@H](C)C([C@@H](C)[C@H](O)[C@H](C)C(=O)[C@H](CC)C2O[C@]3(C=C[C@@H](O)C4(CC[C@@](C)(C5CC[C@](O)(CC)[C@H](C)O5)O4)O3)[C@H](C)C[C@@H]2C)O1 (some centres unmarked) [NO2-m] | 8.78 ± 1.73 | 2.84 | 3.26 ± 0.84 | 0.20 | 7.64 | 100 (≈ 113 µM) | 16.1 ± 1.61 | 1.54 | 24.6 ± 8 | 2.80 | 1.01 | – | 100 (≈ 113 µM) | – | – | – | – | – |
